Laboratory results from PubChem BioAssay (NCI).
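Grown in 96-well plates, cells were treated for 48 hours with each compound at five concentrations. Insufficient inhibition: endpoint recorded as highest concentration tested. TGI is the concentration that stops growth completely.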

How the values were obtained:
Test in all cases: NCI tumour cell line growth inhibition, 48 h
[1] = system: UACC-257 melanoma
[2] = system: MDA-MB-231 breast
[3] = system: HCT-15 colon
[4] = system: MOLT-4 leukemia
[5] = system: HCC-2998 colon
[6] = system: MALME-3M melanoma
[7] = system: HCT-116 colon
[8] = system: SF-295 CNS
[9] = system: SN12C renal
[10] = system: NCI-H460 lung
[11] = system: SF-268 CNS
[12] = system: LOX IMVI melanoma
[13] = system: OVCAR-4 ovarian
[14] = system: MDA-MB-435
[15] = system: OVCAR-5 ovarian
[16] = system: SNB-19 CNS
[17] = system: K-562 leukemia
[18] = system: HOP-62 NSCLC
[19] = system: OVCAR-3 ovarian
[20] = system: SW-620 colon
[21] = system: RPMI-8226 leukemia
[22] = system: SK-MEL-5 melanoma
[23] = system: RXF 393 renal
[24] = system: MCF7 breast
[25] = system: M14 melanoma
[26] = system: T-47D breast
[27] = system: A549 NSCLC
[28] = system: NCI/ADR-RES ovarian
[29] = system: U251 CNS
[30] = system: NCI-H226 lung
[31] = system: KM12 colon
[32] = system: TK-10 renal
[33] = system: IGROV1 ovarian
[34] = system: CAKI-1 renal
[35] = system: SK-MEL-2 melanoma
[36] = system: SF-539 CNS
[37] = system: OVCAR-8 ovarian
[38] = system: SK-OV-3 ovarian
[39] = system: EKVX NSCLC
[40] = system: UO-31 renal
[41] = system: 786-0 renal
[42] = system: MDA-N
[43] = system: HS 578T breast
[44] = system: SNB-75 CNS
[45] = system: SK-MEL-28 melanoma
[46] = system: CCRF-CEM leukemia
[47] = system: UACC-62 melanoma
[48] = system: COLO 205 colon
[49] = system: NCI-H522 lung
[50] = system: HT29 colon
[51] = system: SR leukemia
[52] = system: PC-3 prostate
[53] = system: NCI-H23 lung
[54] = system: ACHN renal

Measured: TGI

O=c1c2cn[nH]c2nc2scc(-c3ccc(Cl)cc3)n12
> 100 µM: all assays above
